Results on one compound are retold here after PMC2584942, “Phase I dose escalation study of telatinib (BAY 57-9352) in patients with advanced solid tumours” (British Journal of Cancer, 2008).

Experiment [1] relates to tumour blood flow/tumour vessel permeability. Description: DCE-MRI of tumour blood flow/tumour vessel permeability. The class given is in vivo, human. The procedure: The effects of telatinib treatment on the plasma concentrations of sVEGFR-2, VEGF and bFGF were determined from blood samples taken at baseline, on day 14 of cycles 1, 2, 4, 6, etc. and at the final visit. Samples were analysed using the relevant quantitative enzyme-linked immunosorbent assay (ELISA) (R&D Systems Europe, Oxford, UK) according to the manufacturer's instructions. DCE-MRI was performed at baseline, on day 2 (only cycle 1), and on day 14 of cycles 1–3 to assess tumour blood flow/tumour vessel permeability in a subgroup of patients ([Morgan et al, 2003]).
To assess the biological activity of telatinib, plasma concentration analyses for the angiogenic markers VEGF, sVEGFR-2, bFGF, PDGF and […] were performed at baseline and during the course of the study. Furthermore, DCE-MRI measurements were done at baseline, on days 2 and 14 of cycle 1 and on day 14 of cycles 2 and 3. Evaluable DCE-MRI results were available for a subgroup of patients treated at dose levels of 300 mg BID or higher.

The test system of experiment [2] is DLD-1 colon carcinoma. Also on record: method as in printed. The settings on record: DLD-1 colon carcinoma model; background statement, ref not given; cited from earlier work.
Experiment [3] relates to H460 non-small cell lung carcinoma. Also on record: method as in printed. The settings on record: H460 non-small cell lung carcinoma model; background statement, ref not given; cited from earlier work.

Each structure is given as a SMILES string. Where only a bound is given, the exact number is not on record here.

With `CNC(=O)c1cc(COc2nnc(Nc3ccc(Cl)cc3)c3ccoc23)ccn1` [telatinib], the “iAUC60 for the gadolinium curve” value in experiment [1] (DCE-MRI, dose levels of 300 mg BID or higher) was “decrease”. Moreover, in experiment [1] (day 14 of cycle 1), the “telatinib AUC0−12 at which substantial decreases in the gadolinium iAUC60 ratio were observed” value is “about 4 mg h l^−1” and the “total daily dose at which substantial decreases in the gadolinium iAUC60 ratio were observed” value was ≥ 600 mg. Moreover, the “tumour growth in vivo” value in experiment [2] is listed as “potent, dose-dependent reduction in tumour growth”. The “tumour growth in vivo” value in experiment [3] is reported as “potent, dose-dependent reduction in tumour growth”.
